Source: patent US20240245770A1, “COMPOSITIONS AND METHODS FOR TREATING NEUROMUSCULAR DISORDERS” (The Regents of the University of California, priority 2019, published 2024)

Columns and labels:
[1] = test system: PBMCs; assay: PBMC flow cytometry, percentages of immune subsets; assay type: cell-based, human
Description: Percentage of immune subsets in PBMCs in lab blood drawn. PBMC were isolated from peripheral blood of donors using ficoll-hypaque gradient centrifugation. The percentages of each cell subset in PBMCs were determined by flow cytometric analysis after staining with specific fluorescent conjugated antibodies directed to the cell surface receptors. No significant differences in the percentages of immune subsets between the donors (FIG. 1A and FIG. 1B).

[2] = test system: Dental Pulp Stromal Cells (DPSCs); assay: NAC blocking of H2O2 mediated cell death in DPSCs; assay type: cell-based, human; settings: NAC 20 mM, 24 hours, FIG. 67
Description: Testing and selection of the best NAC to be used in ALS treatment. […] Afterwards DPSCs were detached, and the viability of cells was determined after PI staining followed by flow cytometric analysis. In this figure the decrease in FS/ss and the percentage of PI stained cells were assessed.

[3] = ALS patient H107 JC, Post-NAC, Pre-young plasma
[4] = ALS patient H110 RS, Post-NAC infusion

CC(=O)N[C@@H](CS)C(=O)O [NAC, N-Acetyl-Cysteine]
CD4, percentage of immune subset [1, 3]: 31.4% | CD8, percentage of immune subset [1, 3]: 15.1% | CD14, percentage of immune subset [1, 3]: 15.0% | CD19, percentage of immune subset [1, 3]: 24.6% | NK, percentage of immune subset [1, 3]: 11.5% | NKT, percentage of immune subset [1, 3]: 3.58% | total of immune subsets [1, 3]: 97.6% | CD4, percentage of immune subset [1, 4]: 27.6% | CD8, percentage of immune subset [1, 4]: 20.4% | CD14, percentage of immune subset [1, 4]: 27.1% | CD19, percentage of immune subset [1, 4]: 10.0% | NK, percentage of immune subset [1, 4]: 15.3% | total of immune subsets [1, 4]: 100.4% | H2O2 mediated cell death (Fs/ss and PI positive cells) [2]: blocks H2O2 mediated Cell death in DPSCs
